Laboratory results published in ChEMBL document CHEMBL1770109, “SAR studies of pyridazinone derivatives as novel glucan synthase inhibitors” (Bioorg Med Chem Lett, 2011).
Converted amounts (≈) assume the structure as drawn.

target: Beta-1,3-glucan synthase (Candida albicans, UniProt O13428); assay: Inhibition of Candida albicans BWP17 1,3-beta-glucan synthase; details: not given
Sequence (O13428 whole entry): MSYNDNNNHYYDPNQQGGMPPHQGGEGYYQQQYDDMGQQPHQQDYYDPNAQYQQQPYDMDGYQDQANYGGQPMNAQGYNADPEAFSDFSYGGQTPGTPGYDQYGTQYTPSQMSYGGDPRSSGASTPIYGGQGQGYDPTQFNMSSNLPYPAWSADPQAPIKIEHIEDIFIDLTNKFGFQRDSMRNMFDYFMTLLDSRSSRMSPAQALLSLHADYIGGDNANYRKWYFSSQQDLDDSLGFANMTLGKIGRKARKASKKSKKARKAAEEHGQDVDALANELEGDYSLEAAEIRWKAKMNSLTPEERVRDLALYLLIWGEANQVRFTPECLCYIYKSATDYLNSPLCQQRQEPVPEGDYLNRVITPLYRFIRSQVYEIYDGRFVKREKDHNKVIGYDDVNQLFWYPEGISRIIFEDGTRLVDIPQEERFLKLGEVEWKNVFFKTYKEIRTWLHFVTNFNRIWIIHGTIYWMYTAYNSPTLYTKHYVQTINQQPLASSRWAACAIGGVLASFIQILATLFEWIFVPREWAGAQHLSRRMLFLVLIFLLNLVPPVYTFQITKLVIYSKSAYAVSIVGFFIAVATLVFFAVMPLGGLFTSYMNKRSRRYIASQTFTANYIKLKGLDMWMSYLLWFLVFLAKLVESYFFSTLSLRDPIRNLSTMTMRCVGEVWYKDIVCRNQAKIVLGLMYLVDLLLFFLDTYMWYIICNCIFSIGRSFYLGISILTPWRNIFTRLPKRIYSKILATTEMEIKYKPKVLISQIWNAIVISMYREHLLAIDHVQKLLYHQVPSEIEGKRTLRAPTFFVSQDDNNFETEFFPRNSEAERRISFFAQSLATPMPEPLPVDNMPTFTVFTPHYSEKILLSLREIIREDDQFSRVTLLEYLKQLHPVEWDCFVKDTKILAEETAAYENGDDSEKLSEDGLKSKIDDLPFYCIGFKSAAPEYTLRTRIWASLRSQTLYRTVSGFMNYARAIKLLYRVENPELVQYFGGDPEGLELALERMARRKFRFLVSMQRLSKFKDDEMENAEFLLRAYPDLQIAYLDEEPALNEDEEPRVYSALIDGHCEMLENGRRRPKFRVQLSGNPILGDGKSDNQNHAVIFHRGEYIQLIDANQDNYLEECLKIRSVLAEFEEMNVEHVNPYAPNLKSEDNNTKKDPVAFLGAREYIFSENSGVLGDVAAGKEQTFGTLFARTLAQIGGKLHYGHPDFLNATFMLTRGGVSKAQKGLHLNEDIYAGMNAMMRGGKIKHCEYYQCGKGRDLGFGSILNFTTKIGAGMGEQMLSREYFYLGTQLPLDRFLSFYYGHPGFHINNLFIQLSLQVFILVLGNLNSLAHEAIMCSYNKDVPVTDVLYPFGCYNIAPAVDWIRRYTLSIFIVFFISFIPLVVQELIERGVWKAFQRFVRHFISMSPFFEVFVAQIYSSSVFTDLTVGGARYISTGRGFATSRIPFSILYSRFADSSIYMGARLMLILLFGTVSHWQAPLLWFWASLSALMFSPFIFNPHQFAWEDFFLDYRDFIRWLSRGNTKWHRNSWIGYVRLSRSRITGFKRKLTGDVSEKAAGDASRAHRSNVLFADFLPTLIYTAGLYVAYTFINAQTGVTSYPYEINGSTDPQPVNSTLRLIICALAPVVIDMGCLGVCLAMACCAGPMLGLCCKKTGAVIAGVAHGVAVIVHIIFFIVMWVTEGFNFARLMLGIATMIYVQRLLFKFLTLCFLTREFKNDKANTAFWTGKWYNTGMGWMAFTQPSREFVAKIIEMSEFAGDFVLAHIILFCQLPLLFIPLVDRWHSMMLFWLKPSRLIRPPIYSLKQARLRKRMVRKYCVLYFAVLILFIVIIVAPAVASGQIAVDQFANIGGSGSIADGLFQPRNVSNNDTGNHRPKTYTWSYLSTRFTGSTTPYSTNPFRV

Structure (SMILES)	IC50 [µM]
CCOCCOc1c(N2CCN(S(=O)(=O)Cc3ccccc3)CC2)cnn(-c2ccccc2)c1=O	1.81
CCOCCOc1cc(-c2ccccc2)nnc1N1CCN(S(=O)(=O)Cc2ccccc2)CC1	76.7
CCOCCOc1c(N2CCN(S(=O)(=O)Cc3ccccc3)CC2)c(C)nn(-c2ccccc2)c1=O	139
CCOCCOc1nn(-c2ccccc2)c(=O)c(OCCOCC)c1N1CCN(S(=O)(=O)Cc2ccccc2)CC1	7.16
CCOCCOc1cc(-c2ccccc2)ccc1N1CCN(S(=O)(=O)Cc2ccccc2)CC1	287
CCCCCCc1c(N2CCN(S(=O)(=O)Cc3ccccc3)CC2)ncn(-c2cccc(Cl)c2)c1=O	2.48
O=c1c(-c2ccc(F)cc2)c(N2CCN(S(=O)(=O)Cc3ccccc3)CC2)ccn1-c1ccccc1	4.77
CC(C)(C)S(=O)(=O)N1CCN(c2cnn(-c3cccc(Cl)c3)c(=O)c2OC2CCCC2)CC1	0.828
O=c1c(OC2CCCC2)c(N2CCN(S(=O)(=O)C3CCCC3)CC2)cnn1-c1cccc(Cl)c1	1.22
COCCS(=O)(=O)N1CCN(c2cnn(-c3cccc(Cl)c3)c(=O)c2OC2CCCC2)CC1	0.865
O=C(O)CCS(=O)(=O)N1CCN(c2cnn(-c3cccc(Cl)c3)c(=O)c2OC2CCCC2)CC1	214
O=c1c(OC2CCCC2)c(N2CCN(S(=O)(=O)c3ccsc3)CC2)cnn1-c1cccc(Cl)c1	0.806
O=c1c(OC2CCCC2)c(N2CCN(S(=O)(=O)c3ccc4ccccc4c3)CC2)cnn1-c1cccc(Cl)c1	0.131
Cn1ccc2ccc(S(=O)(=O)N3CCN(c4cnn(-c5cccc(Cl)c5)c(=O)c4OC4CCCC4)CC3)cc21	0.282
O=c1c(OC2CCCC2)c(N2CCN(S(=O)(=O)Cc3ccccc3)CC2)cnn1-c1cccc(Cl)c1	0.378
O=c1c(OC2CCCC2)c(N2CCN(S(=O)(=O)Cc3ccsc3)CC2)cnn1-c1cccc(Cl)c1	0.411
O=c1c(OC2CCCC2)c(N2CCN(S(=O)(=O)CCc3ccccc3)CC2)cnn1-c1cccc(Cl)c1	1.47
O=c1c(OC2CCCC2)c(N2CCN(S(=O)(=O)C3Cc4ccccc4C3)CC2)cnn1-c1cccc(Cl)c1	0.522
O=c1c(OC2CCCC2)c(N2CCN(S(=O)(=O)Cc3noc4ccccc34)CC2)cnn1-c1cccc(Cl)c1	0.14
O=c1c(OC2CCCC2)c(N2CCN(S(=O)(=O)CCCc3ccccc3)CC2)cnn1-c1cccc(Cl)c1	41.3

test system: Nakaseomyces glabratus; assay: Antifungal activity against Candida glabrata C624; assay type: functional; details: read-out: MIC100

Structure (SMILES)	MIC [µg/mL]
CCOCCOc1c(N2CCN(S(=O)(=O)Cc3ccccc3)CC2)cnn(-c2ccccc2)c1=O	0.1 (≈ 0.201 µM)
CCOCCOc1cc(-c2ccccc2)nnc1N1CCN(S(=O)(=O)Cc2ccccc2)CC1	> 25
CCOCCOc1c(N2CCN(S(=O)(=O)Cc3ccccc3)CC2)c(C)nn(-c2ccccc2)c1=O	25 (≈ 48.8 µM)
CCOCCOc1nn(-c2ccccc2)c(=O)c(OCCOCC)c1N1CCN(S(=O)(=O)Cc2ccccc2)CC1	6.25 (≈ 10.7 µM)
CCOCCOc1cc(-c2ccccc2)ccc1N1CCN(S(=O)(=O)Cc2ccccc2)CC1	> 50
O=c1c(-c2ccc(F)cc2)c(N2CCN(S(=O)(=O)Cc3ccccc3)CC2)cnn1-c1ccccc1	0.05 (≈ 0.0991 µM)
O=c1c(-c2ccc(F)cc2)c(N2CCN(S(=O)(=O)Cc3ccccc3)CC2)ccn1-c1ccccc1	0.78 (≈ 1.55 µM)
CC(C)(C)S(=O)(=O)N1CCN(c2cnn(-c3cccc(Cl)c3)c(=O)c2OC2CCCC2)CC1	0.1 (≈ 0.202 µM)
O=c1c(OC2CCCC2)c(N2CCN(S(=O)(=O)C3CCCC3)CC2)cnn1-c1cccc(Cl)c1	0.1 (≈ 0.197 µM)
COCCS(=O)(=O)N1CCN(c2cnn(-c3cccc(Cl)c3)c(=O)c2OC2CCCC2)CC1	0.2 (≈ 0.402 µM)
O=C(O)CCS(=O)(=O)N1CCN(c2cnn(-c3cccc(Cl)c3)c(=O)c2OC2CCCC2)CC1	> 50
O=c1c(OC2CCCC2)c(N2CCN(S(=O)(=O)c3ccsc3)CC2)cnn1-c1cccc(Cl)c1	0.05 (≈ 0.096 µM)
O=c1c(OC2CCCC2)c(N2CCN(S(=O)(=O)c3ccccc3)CC2)cnn1-c1cccc(Cl)c1	0.3 (≈ 0.582 µM)
O=c1c(OC2CCCC2)c(N2CCN(S(=O)(=O)c3ccc4ccccc4c3)CC2)cnn1-c1cccc(Cl)c1	1.04 (≈ 1.84 µM)
Cn1ccc2ccc(S(=O)(=O)N3CCN(c4cnn(-c5cccc(Cl)c5)c(=O)c4OC4CCCC4)CC3)cc21	0.2 (≈ 0.352 µM)
O=c1c(OC2CCCC2)c(N2CCN(S(=O)(=O)Cc3ccccc3)CC2)cnn1-c1cccc(Cl)c1	0.02 (≈ 0.0378 µM)
O=c1c(OC2CCCC2)c(N2CCN(S(=O)(=O)Cc3ccsc3)CC2)cnn1-c1cccc(Cl)c1	0.02 (≈ 0.0374 µM)

Structure (SMILES)	MIC [µg/mL]
O=c1c(OC2CCCC2)c(N2CCN(S(=O)(=O)CCc3ccccc3)CC2)cnn1-c1cccc(Cl)c1	0.08 (≈ 0.147 µM)
O=c1c(OC2CCCC2)c(N2CCN(S(=O)(=O)C3Cc4ccccc4C3)CC2)cnn1-c1cccc(Cl)c1	0.1 (≈ 0.18 µM)
O=c1c(OC2CCCC2)c(N2CCN(S(=O)(=O)Cc3noc4ccccc34)CC2)cnn1-c1cccc(Cl)c1	0.05 (≈ 0.0877 µM)
O=c1c(OC2CCCC2)c(N2CCN(S(=O)(=O)CCCc3ccccc3)CC2)cnn1-c1cccc(Cl)c1	3.13 (≈ 5.62 µM)
O=c1c(OC2CCCC2)c(N2CCN(S(=O)(=O)Cc3ccc(F)cc3)CC2)cnn1-c1cccc(Cl)c1	0.05 (≈ 0.0914 µM)
Cc1ccc(CS(=O)(=O)N2CCN(c3cnn(-c4cccc(Cl)c4)c(=O)c3OC3CCCC3)CC2)cc1	0.08 (≈ 0.147 µM)
O=c1c(OC2CCCC2)c(N2CCN(S(=O)(=O)Cc3cccc(C(F)(F)F)c3)CC2)cnn1-c1cccc(Cl)c1	0.78 (≈ 1.31 µM)
N#Cc1ccc(CS(=O)(=O)N2CCN(c3cnn(-c4cccc(Cl)c4)c(=O)c3OC3CCCC3)CC2)cc1	0.02 (≈ 0.0361 µM)
CCOC(=O)c1ccc(CS(=O)(=O)N2CCN(c3cnn(-c4cccc(Cl)c4)c(=O)c3OC3CCCC3)CC2)cc1	0.78 (≈ 1.3 µM)
O=c1c(OC2CCCC2)c(N2CCN(S(=O)(=O)Cc3cccc(B(O)O)c3)CC2)cnn1-c1cccc(Cl)c1	0.42 (≈ 0.733 µM)
O=C(O)c1ccc(CS(=O)(=O)N2CCN(c3cnn(-c4cccc(Cl)c4)c(=O)c3OC3CCCC3)CC2)cc1	25 (≈ 43.6 µM)
O=c1c(OC2CCCC2)c(N2CCN(S(=O)(=O)Cc3ccc([N+](=O)[O-])cc3)CC2)cnn1-c1cccc(Cl)c1	0.05 (≈ 0.0871 µM)
O=c1c(OC2CCCC2)c(N2CCN(S(=O)(=O)Cc3ccncc3)CC2)cnn1-c1cccc(Cl)c1	< 0.02
Nc1ccccc1CS(=O)(=O)N1CCN(c2cnn(-c3cccc(Cl)c3)c(=O)c2OC2CCCC2)CC1	0.03 (≈ 0.0551 µM)
Nc1cccc(CS(=O)(=O)N2CCN(c3cnn(-c4cccc(Cl)c4)c(=O)c3OC3CCCC3)CC2)c1	0.39 (≈ 0.717 µM)
Nc1ccc(CS(=O)(=O)N2CCN(c3cnn(-c4cccc(Cl)c4)c(=O)c3OC3CCCC3)CC2)cc1	0.2 (≈ 0.368 µM)

test system: Candida albicans; assay: Antifungal activity against Candida albicans C693; assay type: functional; details: not given

Structure (SMILES)	MIC50 [µg/mL]
CCCCCCc1c(N2CCN(S(=O)(=O)Cc3ccccc3)CC2)ncn(-c2cccc(Cl)c2)c1=O	9 (≈ 17 µM)
CC(C)(C)S(=O)(=O)N1CCN(c2cnn(-c3cccc(Cl)c3)c(=O)c2OC2CCCC2)CC1	0.78 (≈ 1.58 µM)
Cn1ccc2ccc(S(=O)(=O)N3CCN(c4cnn(-c5cccc(Cl)c5)c(=O)c4OC4CCCC4)CC3)cc21	0.78 (≈ 1.37 µM)

same assay, conditions: read-out: MIC100

Structure (SMILES)	MIC [µg/mL]
CCOCCOc1c(N2CCN(S(=O)(=O)Cc3ccccc3)CC2)cnn(-c2ccccc2)c1=O	3.13 (≈ 6.28 µM)
CCOCCOc1cc(-c2ccccc2)nnc1N1CCN(S(=O)(=O)Cc2ccccc2)CC1	> 25
CCOCCOc1c(N2CCN(S(=O)(=O)Cc3ccccc3)CC2)c(C)nn(-c2ccccc2)c1=O	> 50
CCOCCOc1nn(-c2ccccc2)c(=O)c(OCCOCC)c1N1CCN(S(=O)(=O)Cc2ccccc2)CC1	> 50
CCOCCOc1cc(-c2ccccc2)ccc1N1CCN(S(=O)(=O)Cc2ccccc2)CC1	> 50
CCCCCCc1c(N2CCN(S(=O)(=O)Cc3ccccc3)CC2)ncn(-c2cccc(Cl)c2)c1=O	> 25
O=c1c(-c2ccc(F)cc2)c(N2CCN(S(=O)(=O)Cc3ccccc3)CC2)cnn1-c1ccccc1	6.25 (≈ 12.4 µM)
O=c1c(-c2ccc(F)cc2)c(N2CCN(S(=O)(=O)Cc3ccccc3)CC2)ccn1-c1ccccc1	> 50
O=c1c(OC2CCCC2)c(N2CCN(S(=O)(=O)C3CCCC3)CC2)cnn1-c1cccc(Cl)c1	3.13 (≈ 6.17 µM)
COCCS(=O)(=O)N1CCN(c2cnn(-c3cccc(Cl)c3)c(=O)c2OC2CCCC2)CC1	3.13 (≈ 6.3 µM)
O=C(O)CCS(=O)(=O)N1CCN(c2cnn(-c3cccc(Cl)c3)c(=O)c2OC2CCCC2)CC1	> 50
O=c1c(OC2CCCC2)c(N2CCN(S(=O)(=O)c3ccsc3)CC2)cnn1-c1cccc(Cl)c1	0.78 (≈ 1.5 µM)
O=c1c(OC2CCCC2)c(N2CCN(S(=O)(=O)c3ccccc3)CC2)cnn1-c1cccc(Cl)c1	3.1 (≈ 6.02 µM)
O=c1c(OC2CCCC2)c(N2CCN(S(=O)(=O)c3ccc4ccccc4c3)CC2)cnn1-c1cccc(Cl)c1	33.4 (≈ 59.1 µM)
O=c1c(OC2CCCC2)c(N2CCN(S(=O)(=O)Cc3ccccc3)CC2)cnn1-c1cccc(Cl)c1	0.39 (≈ 0.737 µM)
O=c1c(OC2CCCC2)c(N2CCN(S(=O)(=O)Cc3ccsc3)CC2)cnn1-c1cccc(Cl)c1	2.1 (≈ 3.92 µM)

Structure (SMILES)	MIC [µg/mL]
O=c1c(OC2CCCC2)c(N2CCN(S(=O)(=O)CCc3ccccc3)CC2)cnn1-c1cccc(Cl)c1	5 (≈ 9.21 µM)
O=c1c(OC2CCCC2)c(N2CCN(S(=O)(=O)C3Cc4ccccc4C3)CC2)cnn1-c1cccc(Cl)c1	1.56 (≈ 2.81 µM)
O=c1c(OC2CCCC2)c(N2CCN(S(=O)(=O)Cc3noc4ccccc34)CC2)cnn1-c1cccc(Cl)c1	0.78 (≈ 1.37 µM)
O=c1c(OC2CCCC2)c(N2CCN(S(=O)(=O)CCCc3ccccc3)CC2)cnn1-c1cccc(Cl)c1	> 50
O=c1c(OC2CCCC2)c(N2CCN(S(=O)(=O)Cc3ccc(F)cc3)CC2)cnn1-c1cccc(Cl)c1	1.56 (≈ 2.85 µM)
Cc1ccc(CS(=O)(=O)N2CCN(c3cnn(-c4cccc(Cl)c4)c(=O)c3OC3CCCC3)CC2)cc1	0.31 (≈ 0.571 µM)
O=c1c(OC2CCCC2)c(N2CCN(S(=O)(=O)Cc3cccc(C(F)(F)F)c3)CC2)cnn1-c1cccc(Cl)c1	> 50
N#Cc1ccc(CS(=O)(=O)N2CCN(c3cnn(-c4cccc(Cl)c4)c(=O)c3OC3CCCC3)CC2)cc1	0.13 (≈ 0.235 µM)
CCOC(=O)c1ccc(CS(=O)(=O)N2CCN(c3cnn(-c4cccc(Cl)c4)c(=O)c3OC3CCCC3)CC2)cc1	6.25 (≈ 10.4 µM)
O=c1c(OC2CCCC2)c(N2CCN(S(=O)(=O)Cc3cccc(B(O)O)c3)CC2)cnn1-c1cccc(Cl)c1	13.4 (≈ 23.4 µM)
O=C(O)c1ccc(CS(=O)(=O)N2CCN(c3cnn(-c4cccc(Cl)c4)c(=O)c3OC3CCCC3)CC2)cc1	> 50
O=c1c(OC2CCCC2)c(N2CCN(S(=O)(=O)Cc3ccc([N+](=O)[O-])cc3)CC2)cnn1-c1cccc(Cl)c1	0.78 (≈ 1.36 µM)
O=c1c(OC2CCCC2)c(N2CCN(S(=O)(=O)Cc3ccncc3)CC2)cnn1-c1cccc(Cl)c1	0.2 (≈ 0.377 µM)
Nc1ccccc1CS(=O)(=O)N1CCN(c2cnn(-c3cccc(Cl)c3)c(=O)c2OC2CCCC2)CC1	0.35 (≈ 0.643 µM)
Nc1cccc(CS(=O)(=O)N2CCN(c3cnn(-c4cccc(Cl)c4)c(=O)c3OC3CCCC3)CC2)c1	3.13 (≈ 5.75 µM)
Nc1ccc(CS(=O)(=O)N2CCN(c3cnn(-c4cccc(Cl)c4)c(=O)c3OC3CCCC3)CC2)cc1	0.78 (≈ 1.43 µM)

test system: not listed separately; assay: AUC (0 to 6 hrs) in rat at 10 mg/kg, po; assay type: ADME, organism-based; design: time < 6 hr, dose 10 mg/kg, route oral; details: plasma

AUC(0-t) at 6 h [ng·h/mL]	Structure (SMILES)
130	O=C(O)c1ccc(CS(=O)(=O)N2CCN(c3cnn(-c4cccc(Cl)c4)c(=O)c3OC3CCCC3)CC2)cc1
60	O=c1c(OC2CCCC2)c(N2CCN(S(=O)(=O)Cc3ccncc3)CC2)cnn1-c1cccc(Cl)c1
290	Nc1ccccc1CS(=O)(=O)N1CCN(c2cnn(-c3cccc(Cl)c3)c(=O)c2OC2CCCC2)CC1
50	Nc1cccc(CS(=O)(=O)N2CCN(c3cnn(-c4cccc(Cl)c4)c(=O)c3OC3CCCC3)CC2)c1
80	Nc1ccc(CS(=O)(=O)N2CCN(c3cnn(-c4cccc(Cl)c4)c(=O)c3OC3CCCC3)CC2)cc1
